Assay: HPLC retention times (reverse phase) as a measure of hydrophilicity
Assay type: physicochemical
Details: reverse phase C18 3.5 μm 4.6×75 mm; 45° C.; flow 1.0 mL/min; isocratic 40:60 v/v H2O:MeOH; shorter retention times correspond to higher hydrophilicity
Experimental: HPLC Retention Times [min] for Compounds According to the Invention
HPLC Conditions: Waters's SYMMETRY® HPLC column system (C18 3.5 μm 4.6×75 mm); T: 45° C.; flow 1.0 mL/min; isocratic eluent conditions 40:60 v/v/H2O:MeOH. Injection volume: 100 μL.
Solvents used for eluent are of HPLC grade, water filtered through a Millipore apparatus; all solvents were filtered through a 0.45 μm Millipore filter and degassed by N2 stream prior use.
Since the analyses are carried in reverse phase, shorter retention times correspond to higher hydrophilicity.

Row | Structure (SMILES) | retention time [min]
1 | C#C[C@]1(O)C=C2CCC3C(CC[C@@]4(C)C3CC[C@@H]4C(C)=O)[C@@]2(C)CC1 (stereo partly drawn) [UC 2024, 3β-ethynyl, 3α-hydroxyl, Δ4-pregnen-20-one] | 14.0
2 | C#C[C@@]1(O)CC[C@@]2(C)[C@@H](CC[C@@H]3[C@@H]2CC[C@]2(C)C(=O)CC[C@@H]32)C1 [UC 2021, 3β-ethynyl, 3α-hydroxyl, androstan-17-one] | 7.8
3 | C#C[C@@]1(O)CC[C@@]2(C)C(CC[C@@H]3[C@@H]2CC[C@]2(C)/C(=N\O)CC[C@@H]32)C1 (stereo partly drawn) [UC 2025, 3β-ethynyl, 3α-hydroxyl, androstan-17-one oxime] | 13.9
4 | CC(=O)[C@H]1CC[C@H]2[C@@H]3CC[C@H]4C[C@@H](O)CC[C@]4(C)[C@H]3CC[C@]12C [3β-5α-pregnan-20-one, reference compound] | 30.0
5 | CC(=O)[C@H]1CC[C@H]2[C@@H]3CC[C@@H]4C[C@@H](O)CC[C@]4(C)[C@H]3CC[C@]12C [3β-5β-pregnan-20-one, reference compound] | 24.4
6 | C#C[C@@]1(O)CC[C@@]2(C)[C@@H](CC[C@@H]3[C@@H]2CC[C@]2(C)[C@@H](/C(C)=N/O)CC[C@@H]32)C1 [UC 2026, 3β-ethynyl, 3α-hydroxyl, 5α-pregnan-20-one oxime] | 16.9
